According to ChEMBL document CHEMBL5532698, “2,3-Dihydroquinazolin-4(1H)-ones and quinazolin-4(3H)-ones as broad-spectrum cytotoxic agents and their impact on tubulin polymerisation” (RSC Med Chem, 2024):
Activity calls are given as the source filed them. The calls are words filed in the database; no cut-off is given here.

Experiments:
HT-29 [1] = assay: Antiproliferative activity against human HT-29 cells assessed as cell growth inhibition incubated for 72 hrs by MTT assay; format: functional
Tubulin (Homo sapiens) [2] = target: T1, Tubulin (Homo sapiens) (UniProt P68371+Q9H4B7+P0DPH7+P68366+Q13509+Q71U36+P04350+Q3ZCM7+P07437+P68363+Q9BQE3+Q6PEY2+Q13885+Q9BVA1+Q9BUF5); assay: Induction of tubulin (unknown origin) polymerization assessed as microtubule formation by measuring increase in fluorescence at 10 uM by fluorometric analysis; format: protein-complex assay
A-431 [3] = assay: Antiproliferative activity against human A-431 cells assessed as cell growth inhibition at 25 uM incubated for 72 hrs by MTT assay relative to control; format: functional
NCI-H460 [4] = assay: Antiproliferative activity against human NCI-H460 cells assessed as cell growth inhibition at 25 uM incubated for 72 hrs by MTT assay relative to control; format: functional
A2780 [5] = assay: Antiproliferative activity against human A2780 cells assessed as cell growth inhibition at 25 uM incubated for 72 hrs by MTT assay relative to control; format: functional
[6] = Antiproliferative activity against human SJG2 cells assessed as cell growth inhibition at 25 uM incubated for 72 hrs by MTT assay relative to control; format: functional; conditions: SJ-G2
MIA PaCa-2 [7] = assay: Antiproliferative activity against human MIA PaCa-2 cells assessed as cell growth inhibition at 25 uM incubated for 72 hrs by MTT assay relative to control; format: functional
[8] = Cytotoxicity against human MCF-10A cells assessed as cell growth inhibition at 25 uM incubated for 72 hrs by MTT assay relative to control; format: toxicity, cell-based
DU-145 [9] = assay: Antiproliferative activity against human DU-145 cells assessed as cell growth inhibition at 25 uM incubated for 72 hrs by MTT assay relative to control; format: functional
A-431 [10] = assay: Antiproliferative activity against human A-431 cells assessed as cell growth inhibition incubated for 72 hrs by MTT assay; format: functional
[11] = Cytotoxicity against human MCF-10A cells assessed as cell growth inhibition incubated for 72 hrs by MTT assay; format: toxicity, cell-based
BE(2)-C [12] = assay: Antiproliferative activity against human BE2C cells assessed as cell growth inhibition incubated for 72 hrs by MTT assay; format: functional
MIA PaCa-2 [13] = assay: Antiproliferative activity against human MIA PaCa-2 cells assessed as cell growth inhibition incubated for 72 hrs by MTT assay; format: functional
MCF7 [14] = assay: Antiproliferative activity against human MCF7 cells assessed as cell growth inhibition at 25 uM incubated for 72 hrs by MTT assay relative to control; format: functional
[15] = Antiproliferative activity against human SJG2 cells assessed as cell growth inhibition incubated for 72 hrs by MTT assay; format: functional; conditions: SJ-G2
NCI-H460 [16] = assay: Antiproliferative activity against human NCI-H460 cells assessed as cell growth inhibition incubated for 72 hrs by MTT assay; format: functional
U-87 MG [17] = assay: Antiproliferative activity against human U87 cells assessed as cell growth inhibition at 25 uM incubated for 72 hrs by MTT assay relative to control; format: functional, U-87MG ATCC
A2780 [18] = assay: Antiproliferative activity against human A2780 cells assessed as cell growth inhibition incubated for 72 hrs by MTT assay; format: functional
DU-145 [19] = assay: Antiproliferative activity against human DU-145 cells assessed as cell growth inhibition incubated for 72 hrs by MTT assay; format: functional
BE(2)-C [20] = assay: Antiproliferative activity against human BE2C cells assessed as cell growth inhibition at 25 uM incubated for 72 hrs by MTT assay relative to control; format: functional
U-87 MG [21] = assay: Antiproliferative activity against human U87 cells assessed as cell growth inhibition incubated for 72 hrs by MTT assay; format: functional, U-87MG ATCC
MCF7 [22] = assay: Antiproliferative activity against human MCF7 cells assessed as cell growth inhibition incubated for 72 hrs by MTT assay; format: functional
HT-29 [23] = assay: Antiproliferative activity against human HT-29 cells assessed as cell growth inhibition at 25 uM incubated for 72 hrs by MTT assay relative to control; format: functional
MIA PaCa-2 [24] = assay: Induction of G2/M phase cell cycle arrest in human MIA PaCa-2 cells assessed as G1 phase cells at 0.1 uM incubated for 24 hrs by PI/RNase staining based analysis (reference value: 66 +/- 2%); format: functional
MIA PaCa-2 [25] = assay: Induction of G2/M phase cell cycle arrest in human MIA PaCa-2 cells assessed as sub G1 phase cells at 0.1 uM incubated for 24 hrs by PI/RNase staining based analysis (reference value: 4 +/- 2%); format: functional
MIA PaCa-2 [26] = assay: Induction of G2/M phase cell cycle arrest in human MIA PaCa-2 cells at 0.1 uM incubated for 24 hrs by PI/RNase staining based analysis (reference value: 20 +/- 1%); format: functional
MIA PaCa-2 [27] = assay: Induction of G2/M phase cell cycle arrest in human MIA PaCa-2 cells assessed as S phase cells at 0.1 uM incubated for 24 hrs by PI/RNase staining based analysis (reference value: 11 +/- 1%); format: functional
MIA PaCa-2 [28] = assay: Induction of G2/M phase cell cycle arrest in human MIA PaCa-2 cells assessed as G1 phase cells at 0.5 uM incubated for 24 hrs by PI/RNase staining based analysis (reference value: 66 +/- 2%); format: functional
Tubulin (Homo sapiens) [29] = target: T1, Tubulin (Homo sapiens); assay: Inhibition of tubulin (unknown origin) polymerization assessed as reduction microtubule formation at 10 uM measured after approximately 1 hrs by fluorometric analysis; format: protein-complex assay
MIA PaCa-2 [30] = assay: Induction of G2/M phase cell cycle arrest in human MIA PaCa-2 cells assessed as sub G1 phase cells at 0.5 uM incubated for 24 hrs by PI/RNase staining based analysis (reference value: 4 +/- 2%); format: functional
MIA PaCa-2 [31] = assay: Induction of G2/M phase cell cycle arrest in human MIA PaCa-2 cells assessed as S phase cells at 0.5 uM incubated for 24 hrs by PI/RNase staining based analysis (reference value: 11 +/- 1%); format: functional
MIA PaCa-2 [32] = assay: Induction of G2/M phase cell cycle arrest in human MIA PaCa-2 cells at 0.5 uM incubated for 24 hrs by PI/RNase staining based analysis (reference value: 20 +/- 1%); format: functional

SMILES | GI50 (HT-29 [1]) [nM] | inhibition at 25 µM (A-431 [3]) [%] | inhibition at 25 µM (NCI-H460 [4]) [%] | inhibition at 25 µM (A2780 [5]) [%] | inhibition at 25 µM [6] [%] | inhibition at 25 µM (MIA PaCa-2 [7]) [%] | inhibition at 72 h, 25 µM [8] [%] | inhibition at 25 µM (DU-145 [9]) [%] | GI50 (A-431 [10]) [nM] | GI50 at 72 h [11] [nM] | GI50 (BE(2)-C [12]) [nM] | GI50 (MIA PaCa-2 [13]) [nM] | inhibition at 25 µM (MCF7 [14]) [%] | GI50 [15] [nM] | GI50 (NCI-H460 [16]) [nM] | inhibition at 25 µM (U-87 MG [17]) [%] | GI50 (A2780 [18]) [nM] | GI50 (DU-145 [19]) [nM] | inhibition at 25 µM (BE(2)-C [20]) [%] | inhibition at 25 µM (HT-29 [23]) [%] | also measured
O=C1NC(CCc2ccccc2)Nc2ccccc21 (centres undefined) | 3500 | 14 | < 10 | 29 | 16 | 27 | 23 | 27 | 3600 | 14000 | 3600 | 13000 | 38 | 16000 | 12000 | < 10 | 3900 | 17000 | 19 | 29 | Activity (Tubulin (Homo sapiens) [2]; filed as activator): Active; GI50 (U-87 MG [21]): 19000 nM; GI50 (MCF7 [22]): 14000 nM
O=C1NC(/C=C/c2ccccc2[N+](=O)[O-])Nc2ccccc21 (centres undefined) |  | 40 | 35 | 69 | 81 | 32 | 13 | 66 |  |  |  |  | 55 |  |  | 24 |  |  | 53 | 37 | Activity (Tubulin (Homo sapiens) [2]): inactive
O=c1[nH]c(/C=C/c2ccccc2)nc2ccccc12 | 400 | > 100 | > 100 | > 100 | > 100 | 96 | > 100 | > 100 | 640 | 2300 | 500 | 2300 | > 100 | 2200 | 2500 | > 100 | 450 | 2400 | > 100 | > 100 | Activity (Tubulin (Homo sapiens) [2]): inactive; GI50 (U-87 MG [21]): 2700 nM; GI50 (MCF7 [22]): 1300 nM
O=C1NC(c2cccc3ccccc23)Nc2ccccc21 (centres undefined) | 20 | > 100 | > 100 | > 100 | > 100 | 94 | > 100 | > 100 | 20 | 40 | 27 | 48 | > 100 | 50 | 37 | 93 | 31 | 89 | > 100 | > 100 | Activity (MIA PaCa-2 [24]): 63%; Activity (MIA PaCa-2 [25]): 4%; Activity (MIA PaCa-2 [26]): 22%; Activity (MIA PaCa-2 [27]): 11%; Activity (MIA PaCa-2 [28]): 17%; inhibition (Tubulin (Homo sapiens) [29]): Active; Activity (MIA PaCa-2 [30]): 17%; Activity (MIA PaCa-2 [31]): 11%; GI50 (U-87 MG [21]): 220 nM; Activity (MIA PaCa-2 [32]): 55%; GI50 (MCF7 [22]): 75 nM
